Blank lines part the entries; values can stand above or below the compound they belong to.
What was measured:
Experiment in all cases: radiometric filter-binding kinase assay
[1] = molecular target: AURKA (human) (UniProt O14965)
[2] = molecular target: MARK3 (human) (UniProt P27448)
[3] = molecular target: BTK (human) (UniProt Q06187)
[4] = molecular target: SRPK1 (human) (UniProt Q96SB4)
[5] = molecular target: NEK2 (human) (UniProt P51955)
[6] = molecular target: NTRK1 (human) (UniProt P04629)
[7] = molecular target: INSR (human) (UniProt P06213)
[8] = molecular target: MAPK11 (human) (UniProt Q15759)
[9] = molecular target: MARK4 (human) (UniProt Q96L34)
[10] = molecular target: HIPK1 (human) (UniProt Q86Z02)
[11] = molecular target: MKNK2 (human) (UniProt Q9HBH9)
[12] = molecular target: MAP3K1 (human) (UniProt Q13233)
[13] = test system: AKT2 (human), P31751 [S474D]
[14] = molecular target: IRAK4 (human) (UniProt Q9NWZ3)
[15] = molecular target: DYRK2 (human) (UniProt Q92630)
[16] = molecular target: JAK2 JH1 JH2 (human) (UniProt O60674)
[17] = molecular target: MAPK15 (human) (UniProt Q8TD08)
[18] = molecular target: CSNK1D (human) (UniProt P48730)
[19] = molecular target: MAPK14 (human) (UniProt Q16539)
[20] = molecular target: INSRR (human) (UniProt P14616)
[21] = molecular target: NEK6 (human) (UniProt Q9HC98)
[22] = molecular target: FLT1 (human) (UniProt P17948)
[23] = test system: RPS6KB1 (human), P23443 [T412E]
[24] = molecular target: CLK2 (human) (UniProt P49760)
[25] = molecular target: RPS6KA1 KD1 KD2 (human) (UniProt Q15418)
[26] = molecular target: HIPK2 (human) (UniProt Q9H2X6)
[27] = molecular target: MAP3K9 (human) (UniProt P80192)
[28] = molecular target: MAPK1 (human) (UniProt P28482)
[29] = molecular target: RIPK2 (human) (UniProt O43353)
[30] = molecular target: PRKCA (human) (UniProt P17252)
[31] = molecular target: YES1 (human) (UniProt P07947)
[32] = molecular target: STK11 CAB39 STRADA (human) (UniProt Q9Y376+Q7RTN6+Q15831)
[33] = molecular target: RPS6KA5 KD1 KD2 (human) (UniProt O75582)
[34] = molecular target: CSNK2A1 (human) (UniProt P68400)
[35] = molecular target: MAPKAPK3 (human) (UniProt Q16644)

Sequence of STK11 CAB39 STRADA (human) (Q15831 whole entry, looked up): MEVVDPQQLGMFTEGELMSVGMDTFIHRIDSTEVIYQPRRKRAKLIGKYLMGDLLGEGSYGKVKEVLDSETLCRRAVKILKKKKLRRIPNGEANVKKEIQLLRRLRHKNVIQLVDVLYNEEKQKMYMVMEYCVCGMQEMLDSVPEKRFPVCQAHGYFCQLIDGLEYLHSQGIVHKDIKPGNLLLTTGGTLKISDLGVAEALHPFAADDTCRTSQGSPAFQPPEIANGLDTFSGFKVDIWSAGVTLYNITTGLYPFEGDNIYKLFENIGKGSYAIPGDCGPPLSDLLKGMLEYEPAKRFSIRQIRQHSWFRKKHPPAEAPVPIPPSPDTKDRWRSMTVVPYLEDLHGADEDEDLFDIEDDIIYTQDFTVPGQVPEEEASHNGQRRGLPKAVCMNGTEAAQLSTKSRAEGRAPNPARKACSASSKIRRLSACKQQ
Sequence of STK11 CAB39 STRADA (human) (Q7RTN6 whole entry, looked up): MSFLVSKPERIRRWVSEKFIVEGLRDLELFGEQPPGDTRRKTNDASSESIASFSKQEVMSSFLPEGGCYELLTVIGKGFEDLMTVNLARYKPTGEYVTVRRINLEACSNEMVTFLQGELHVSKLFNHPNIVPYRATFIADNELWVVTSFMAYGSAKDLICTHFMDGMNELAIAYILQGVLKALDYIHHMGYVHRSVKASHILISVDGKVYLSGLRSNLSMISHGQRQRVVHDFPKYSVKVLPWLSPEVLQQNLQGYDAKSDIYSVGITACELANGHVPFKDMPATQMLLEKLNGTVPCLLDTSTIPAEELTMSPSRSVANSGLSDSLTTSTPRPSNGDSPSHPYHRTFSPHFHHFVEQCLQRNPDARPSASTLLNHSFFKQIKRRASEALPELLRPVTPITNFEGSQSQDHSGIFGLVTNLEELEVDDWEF
Sequence of STK11 CAB39 STRADA (human) (Q9Y376 whole entry, looked up): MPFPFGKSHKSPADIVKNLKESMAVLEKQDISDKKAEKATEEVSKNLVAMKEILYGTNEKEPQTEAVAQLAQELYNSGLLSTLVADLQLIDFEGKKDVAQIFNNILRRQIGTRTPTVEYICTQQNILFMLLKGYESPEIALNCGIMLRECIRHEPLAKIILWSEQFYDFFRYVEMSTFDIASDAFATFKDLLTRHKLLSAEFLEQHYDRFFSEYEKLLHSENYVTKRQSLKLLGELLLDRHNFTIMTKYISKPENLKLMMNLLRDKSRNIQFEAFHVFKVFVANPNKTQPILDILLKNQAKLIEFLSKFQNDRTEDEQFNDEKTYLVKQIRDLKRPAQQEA
Sequence of MAPK11 (human) (Q15759 whole entry, looked up): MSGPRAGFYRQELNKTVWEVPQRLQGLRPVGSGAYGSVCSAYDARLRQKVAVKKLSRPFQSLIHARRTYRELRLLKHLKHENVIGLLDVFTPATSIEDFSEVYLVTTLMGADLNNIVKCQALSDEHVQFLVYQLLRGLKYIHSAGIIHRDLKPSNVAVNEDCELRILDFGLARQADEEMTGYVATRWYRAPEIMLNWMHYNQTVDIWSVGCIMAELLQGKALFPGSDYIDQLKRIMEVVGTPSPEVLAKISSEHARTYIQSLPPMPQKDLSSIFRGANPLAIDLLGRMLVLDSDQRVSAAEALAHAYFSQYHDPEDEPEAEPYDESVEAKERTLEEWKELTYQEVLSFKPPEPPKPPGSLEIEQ
Sequence of CLK2 (human) (P49760 whole entry, looked up): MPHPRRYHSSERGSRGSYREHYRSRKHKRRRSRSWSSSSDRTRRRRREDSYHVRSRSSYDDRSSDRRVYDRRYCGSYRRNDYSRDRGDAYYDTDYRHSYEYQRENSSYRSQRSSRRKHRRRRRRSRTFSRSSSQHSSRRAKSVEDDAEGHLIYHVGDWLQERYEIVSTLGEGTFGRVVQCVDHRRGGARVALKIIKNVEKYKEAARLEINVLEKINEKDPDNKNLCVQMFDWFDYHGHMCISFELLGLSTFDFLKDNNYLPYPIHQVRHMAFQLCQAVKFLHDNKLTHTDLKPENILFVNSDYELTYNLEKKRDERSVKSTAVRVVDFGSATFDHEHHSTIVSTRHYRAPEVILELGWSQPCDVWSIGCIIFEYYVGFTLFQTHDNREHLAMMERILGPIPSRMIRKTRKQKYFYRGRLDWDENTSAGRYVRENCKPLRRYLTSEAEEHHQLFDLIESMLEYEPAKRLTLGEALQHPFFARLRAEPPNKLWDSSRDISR
Sequence of AURKA (human) (O14965 whole entry, looked up): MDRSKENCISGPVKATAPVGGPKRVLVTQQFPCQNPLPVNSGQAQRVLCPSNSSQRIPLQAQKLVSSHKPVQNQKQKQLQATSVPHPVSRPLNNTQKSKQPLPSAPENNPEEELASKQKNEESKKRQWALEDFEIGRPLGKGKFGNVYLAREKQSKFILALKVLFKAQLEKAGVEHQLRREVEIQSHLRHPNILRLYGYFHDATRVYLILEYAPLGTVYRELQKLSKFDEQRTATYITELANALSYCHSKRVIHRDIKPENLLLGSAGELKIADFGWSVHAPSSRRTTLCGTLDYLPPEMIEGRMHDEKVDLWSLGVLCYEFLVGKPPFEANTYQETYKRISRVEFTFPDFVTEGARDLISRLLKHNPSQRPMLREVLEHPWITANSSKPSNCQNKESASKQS
Sequence of BTK (human) (Q06187 whole entry, looked up): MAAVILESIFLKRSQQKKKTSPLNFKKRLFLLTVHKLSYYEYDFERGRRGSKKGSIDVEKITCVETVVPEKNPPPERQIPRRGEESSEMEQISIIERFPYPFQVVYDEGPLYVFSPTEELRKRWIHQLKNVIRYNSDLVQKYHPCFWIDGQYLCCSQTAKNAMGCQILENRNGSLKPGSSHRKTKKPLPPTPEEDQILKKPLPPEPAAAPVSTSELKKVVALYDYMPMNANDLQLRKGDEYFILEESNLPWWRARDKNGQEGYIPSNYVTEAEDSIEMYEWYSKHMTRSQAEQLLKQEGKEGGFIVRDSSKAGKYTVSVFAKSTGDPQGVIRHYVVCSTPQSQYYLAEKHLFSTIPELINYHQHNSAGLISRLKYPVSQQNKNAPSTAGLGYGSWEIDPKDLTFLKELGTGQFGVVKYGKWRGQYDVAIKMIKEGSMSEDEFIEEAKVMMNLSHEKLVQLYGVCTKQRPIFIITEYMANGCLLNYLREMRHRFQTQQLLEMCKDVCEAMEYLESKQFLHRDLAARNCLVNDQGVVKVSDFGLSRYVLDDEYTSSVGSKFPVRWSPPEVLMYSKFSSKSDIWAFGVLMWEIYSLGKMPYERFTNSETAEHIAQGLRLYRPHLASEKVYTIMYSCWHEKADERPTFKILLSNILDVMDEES
Sequence of INSR (human) (P06213 whole entry, looked up): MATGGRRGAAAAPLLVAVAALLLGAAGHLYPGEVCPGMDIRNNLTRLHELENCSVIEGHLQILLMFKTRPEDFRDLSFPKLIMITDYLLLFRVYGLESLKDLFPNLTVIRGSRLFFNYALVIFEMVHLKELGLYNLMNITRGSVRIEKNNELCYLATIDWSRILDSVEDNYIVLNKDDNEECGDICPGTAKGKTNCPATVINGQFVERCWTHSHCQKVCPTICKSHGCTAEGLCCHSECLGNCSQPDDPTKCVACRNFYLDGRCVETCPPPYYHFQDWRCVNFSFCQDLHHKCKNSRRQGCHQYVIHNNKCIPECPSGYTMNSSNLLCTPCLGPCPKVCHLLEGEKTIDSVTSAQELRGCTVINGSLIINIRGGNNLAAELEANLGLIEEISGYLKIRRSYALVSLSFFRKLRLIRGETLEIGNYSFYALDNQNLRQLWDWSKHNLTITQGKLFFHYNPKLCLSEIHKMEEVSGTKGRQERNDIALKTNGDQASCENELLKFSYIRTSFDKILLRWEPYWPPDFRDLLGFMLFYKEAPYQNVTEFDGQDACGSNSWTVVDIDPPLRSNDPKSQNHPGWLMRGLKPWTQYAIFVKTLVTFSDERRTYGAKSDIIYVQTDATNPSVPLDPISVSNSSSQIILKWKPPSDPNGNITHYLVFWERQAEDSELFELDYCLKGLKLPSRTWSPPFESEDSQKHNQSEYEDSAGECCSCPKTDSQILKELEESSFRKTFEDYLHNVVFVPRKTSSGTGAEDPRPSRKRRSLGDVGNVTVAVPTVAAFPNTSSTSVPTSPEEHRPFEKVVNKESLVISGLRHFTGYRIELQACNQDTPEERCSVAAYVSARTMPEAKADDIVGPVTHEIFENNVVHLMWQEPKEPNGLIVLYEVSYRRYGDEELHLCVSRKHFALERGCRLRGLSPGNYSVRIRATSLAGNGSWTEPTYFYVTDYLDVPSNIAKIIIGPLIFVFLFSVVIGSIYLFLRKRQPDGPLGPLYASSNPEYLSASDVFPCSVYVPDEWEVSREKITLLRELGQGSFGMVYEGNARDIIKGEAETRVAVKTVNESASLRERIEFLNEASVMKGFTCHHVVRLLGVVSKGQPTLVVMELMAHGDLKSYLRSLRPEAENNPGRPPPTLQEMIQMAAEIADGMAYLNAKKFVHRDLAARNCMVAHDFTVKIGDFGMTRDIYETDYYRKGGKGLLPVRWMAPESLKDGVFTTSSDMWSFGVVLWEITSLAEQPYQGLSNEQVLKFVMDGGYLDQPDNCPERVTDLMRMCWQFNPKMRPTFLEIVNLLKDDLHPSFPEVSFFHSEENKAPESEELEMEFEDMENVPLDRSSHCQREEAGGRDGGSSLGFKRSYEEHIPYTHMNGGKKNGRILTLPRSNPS
Sequence of MAPK14 (human) (Q16539 whole entry, looked up): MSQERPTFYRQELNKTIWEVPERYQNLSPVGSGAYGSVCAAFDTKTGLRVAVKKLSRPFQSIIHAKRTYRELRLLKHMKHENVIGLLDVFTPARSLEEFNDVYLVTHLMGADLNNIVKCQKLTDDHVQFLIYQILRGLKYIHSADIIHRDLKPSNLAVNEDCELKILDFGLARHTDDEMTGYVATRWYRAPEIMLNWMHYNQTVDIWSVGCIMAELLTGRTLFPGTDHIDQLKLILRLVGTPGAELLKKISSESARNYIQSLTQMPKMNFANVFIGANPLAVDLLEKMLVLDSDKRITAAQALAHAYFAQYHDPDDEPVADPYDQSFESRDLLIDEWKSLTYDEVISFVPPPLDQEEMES

residual activity ([1]; compound 1.0 µM): 95% | residual activity ([1]; compound 10.0 µM): 107% | residual activity ([2]; compound 1.0 µM): 96% | residual activity ([2]; compound 10.0 µM): 101% | residual activity ([3]; compound 1.0 µM): 98% | residual activity ([3]; compound 10.0 µM): 96% | residual activity ([4]; compound 1.0 µM): 94% | residual activity ([4]; compound 10.0 µM): 80% | residual activity ([5]; compound 1.0 µM): 96% | residual activity ([5]; compound 10.0 µM): 92% | residual activity ([6]; compound 1.0 µM): 90% | residual activity ([6]; compound 10.0 µM): 90% | residual activity ([7]; compound 1.0 µM): 98% | residual activity ([7]; compound 10.0 µM): 94% | residual activity ([8]; compound 1.0 µM): 92% | residual activity ([8]; compound 10.0 µM): 95% | residual activity ([9]; compound 1.0 µM): 88% | residual activity ([9]; compound 10.0 µM): 102% | residual activity ([10]; compound 1.0 µM): 104% | residual activity ([10]; compound 10.0 µM): 90% | residual activity ([11]; compound 1.0 µM): 91% | residual activity ([11]; compound 10.0 µM): 109% | residual activity ([12]; compound 1.0 µM): 93% | residual activity ([12]; compound 10.0 µM): 103% | residual activity ([13]; compound 1.0 µM): 87% | residual activity ([13]; compound 10.0 µM): 54% | residual activity ([14]; compound 1.0 µM): 84% | residual activity ([14]; compound 10.0 µM): 79% | residual activity ([15]; compound 1.0 µM): 89% | residual activity ([15]; compound 10.0 µM): 121% | residual activity ([16]; compound 1.0 µM): 101% | residual activity ([18]; compound 1.0 µM): 96% | residual activity ([18]; compound 10.0 µM): 93% | residual activity ([19]; compound 1.0 µM): 100% | residual activity ([19]; compound 10.0 µM): 80% | residual activity ([20]; compound 1.0 µM): 91% | residual activity ([20]; compound 10.0 µM): 75% | residual activity ([21]; compound 1.0 µM): 115% | residual activity ([21]; compound 10.0 µM): 63% | residual activity ([22]; compound 1.0 µM): 79% | residual activity ([22]; compound 10.0 µM): 89% | residual activity ([23]; compound 1.0 µM): 86% | residual activity ([23]; compound 10.0 µM): 21% | residual activity ([24]; compound 1.0 µM): 93% | residual activity ([24]; compound 10.0 µM): 64% | residual activity ([25]; compound 1.0 µM): 87% | residual activity ([25]; compound 10.0 µM): 63% | residual activity ([26]; compound 1.0 µM): 88% | residual activity ([26]; compound 10.0 µM): 69% | residual activity ([27]; compound 1.0 µM): 99% | residual activity ([27]; compound 10.0 µM): 80% | residual activity ([28]; compound 1.0 µM): 101% | residual activity ([28]; compound 10.0 µM): 88% | residual activity ([29]; compound 1.0 µM): 93% | residual activity ([29]; compound 10.0 µM): 81% | residual activity ([30]; compound 1.0 µM): 94% | residual activity ([30]; compound 10.0 µM): 90% | residual activity ([31]; compound 1.0 µM): 85% | residual activity ([31]; compound 10.0 µM): 80% | residual activity ([32]; compound 1.0 µM): 103% | residual activity ([32]; compound 10.0 µM): 99% | residual activity ([33]; compound 1.0 µM): 110% | residual activity ([33]; compound 10.0 µM): 46% | residual activity ([34]; compound 1.0 µM): 111% | residual activity ([34]; compound 10.0 µM): 79% | residual activity ([35]; compound 1.0 µM): 103% | residual activity ([35]; compound 10.0 µM): 97%
SMILES: NCC(=O)Nc1ccc(-n2nc(C(F)(F)F)cc2-c2ccc3c(ccc4ccccc43)c2)cc1
residual activity ([17]; compound 1.0 µM): 79% | residual activity ([17]; compound 10.0 µM): 75%

residual activity ([1]; compound 1.0 µM): 105% | residual activity ([2]; compound 0.1 µM): 116% | residual activity ([2]; compound 1.0 µM): 77% | residual activity ([3]; compound 0.1 µM): 90% | residual activity ([3]; compound 1.0 µM): 93% | residual activity ([4]; compound 0.1 µM): 104% | residual activity ([4]; compound 1.0 µM): 88% | residual activity ([5]; compound 0.1 µM): 108% | residual activity ([5]; compound 1.0 µM): 89% | residual activity ([6]; compound 0.1 µM): 46% | residual activity ([6]; compound 1.0 µM): 24% | residual activity ([7]; compound 0.1 µM): 110% | residual activity ([7]; compound 1.0 µM): 94% | residual activity ([8]; compound 0.1 µM): 90% | residual activity ([8]; compound 1.0 µM): 72% | residual activity ([9]; compound 0.1 µM): 107% | residual activity ([9]; compound 1.0 µM): 86% | residual activity ([10]; compound 0.1 µM): 102% | residual activity ([10]; compound 1.0 µM): 98% | residual activity ([11]; compound 0.1 µM): 41% | residual activity ([11]; compound 1.0 µM): 26% | residual activity ([12]; compound 0.1 µM): 107% | residual activity ([12]; compound 1.0 µM): 92% | residual activity ([13]; compound 0.1 µM): 86% | residual activity ([13]; compound 1.0 µM): 84% | residual activity ([14]; compound 0.1 µM): 99% | residual activity ([14]; compound 1.0 µM): 28% | residual activity ([15]; compound 0.1 µM): 114% | residual activity ([15]; compound 1.0 µM): 89% | residual activity ([16]; compound 0.1 µM): 108% | residual activity ([16]; compound 1.0 µM): 75% | residual activity ([18]; compound 0.1 µM): 102% | residual activity ([18]; compound 1.0 µM): 104% | residual activity ([19]; compound 0.1 µM): 103% | residual activity ([19]; compound 1.0 µM): 85% | residual activity ([20]; compound 1.0 µM): 96% | residual activity ([21]; compound 0.1 µM): 122% | residual activity ([21]; compound 1.0 µM): 93% | residual activity ([22]; compound 0.1 µM): 8% | residual activity ([22]; compound 1.0 µM): 13% | residual activity ([23]; compound 0.1 µM): 112% | residual activity ([23]; compound 1.0 µM): 82% | residual activity ([24]; compound 0.1 µM): 96% | residual activity ([24]; compound 1.0 µM): 90% | residual activity ([25]; compound 0.1 µM): 113% | residual activity ([25]; compound 1.0 µM): 90% | residual activity ([26]; compound 0.1 µM): 98% | residual activity ([26]; compound 1.0 µM): 82% | residual activity ([27]; compound 0.1 µM): 109% | residual activity ([27]; compound 1.0 µM): 75% | residual activity ([28]; compound 0.1 µM): 103% | residual activity ([28]; compound 1.0 µM): 65% | residual activity ([29]; compound 0.1 µM): 103% | residual activity ([29]; compound 1.0 µM): 39% | residual activity ([30]; compound 0.1 µM): 107% | residual activity ([30]; compound 1.0 µM): 85% | residual activity ([31]; compound 1.0 µM): 60% | residual activity ([32]; compound 0.1 µM): 138% | residual activity ([32]; compound 1.0 µM): 65% | residual activity ([33]; compound 1.0 µM): 100% | residual activity ([34]; compound 0.1 µM): 106% | residual activity ([34]; compound 1.0 µM): 77% | residual activity ([35]; compound 0.1 µM): 113% | residual activity ([35]; compound 1.0 µM): 94%
SMILES: COc1cc(O)c2c(c1)/C=C/C[C@H](O)[C@H](O)C(=O)/C=C\C[C@H](C)OC2=O
residual activity ([17]; compound 0.1 µM): 40% | residual activity ([17]; compound 1.0 µM): 4%

— the kinase profiling compilation of Christmann-Franck et al. (2016)
